Reference: BindingDB's records for doi:10.1016/j.bmcl.2005.01.080 (University of Minnesota, 2005)

Target: Eukaryotic translation initiation factor 4E (Homo sapiens, UniProt P06730)
Test: Inhibitory concentration against 7-methyl-GTP binding to eukaryotic translation initiation factor 4E

Chain of Eukaryotic translation initiation factor 4E (P06730 whole entry): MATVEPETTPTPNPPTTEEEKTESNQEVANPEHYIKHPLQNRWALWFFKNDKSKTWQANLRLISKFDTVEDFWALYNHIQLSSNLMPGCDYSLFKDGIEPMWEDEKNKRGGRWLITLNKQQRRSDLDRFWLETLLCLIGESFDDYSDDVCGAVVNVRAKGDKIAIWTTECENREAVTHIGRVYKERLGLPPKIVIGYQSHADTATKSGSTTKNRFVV

| SMILES | IC50 |
| --- | --- |
| CN1CN(C2O[C@H](CO)[C@@H](O)[C@H]2O)c2nc(N)[nH]c(=S)c21 (some centres not stated) | > 400 µM |
| CN1CN(C2O[C@H](CO)[C@@H](O)[C@H]2O)C2=NC=NC(O)C21 (some centres not stated) | > 400 µM |
